Patent US20240299360A1, “ADAMTS INHIBITORS, PREPARATION METHODS AND MEDICINAL USES THEREOF” (Jiangsu Hengrui Pharmaceuticals Co., Ltd., priority 2020, published 2024)

Assays:
Format in all cases: biochemical
[1] = biological target: T1, ADAMTS-5 recombinant protein (Homo sapiens (Human), UniProt Q9UNA0); assay: In vitro fluorescence (FRET-peptide) enzymatic assay of ADAMTS-5 activity; conditions: FRET peptide substrate 8 μM, 10 nM enzyme, 37° C. 3 hours
Description: (§1) A FRET (fluorescence resonance energy transfer) peptide was cleaved by recombinant ADAMTS-4 or ADAMTS-5 proteins into two separate fragments resulting in an increase of fluorescence signal which was quantified. The peptide was 5-FAM-[…](5-TAMRA)K-NH2, customized from ANASPEC. ADAMTS-4 recombinant protein (catalog #4307-AD) and ADAMTS-5 recombinant protein (catalog #2198-AD) were purchased from R&D Systems.
(§2) An assay buffer containing 50 mM HEPES pH 7.5, 100 mM NaCl, 5 mM CaCl2, 0.1% CHAPS and 5% Glycerol was prepared. A volume of 2.5 μl of compound in the assay buffer was dispensed to a 384-well plate, and 2.5 μl of ADAMTS-4 or ADAMTS-5 protein (final concentration in the reaction was 10 nM) was added. The compounds and proteins were pre-incubated at room temperature for 15 minutes. Then, 5 μl of substrate was added to each well. The final substrate concentrations for ADAMTS-4 and ADAMTS-5 were 15 μM and 8 μM, respectively. The fluorescence signal in each well was determined, after incubation at 37° C. for 3 hours, on a TECAN plate reader (Excitation, 490 nm; Emission, 520 nm).
(§3) The data was inputted into GraphPad Prism, and the IC50 values were calculated using function “log (inhibitor) vs. response—Variable slope (four parameters)”. (See Table 1)

[2] = biological target: T1, ADAMTS-5 recombinant protein; assay: In vitro ELISA of ADAMTS-5 activity (Aggrecan-IGD enzymatic assay); conditions: aggrecan-IGD substrate, ARGSVIL-peptide ELISA, 37° C. 45 minutes
Description: In this assay, the enzymatic activity of recombinant ADAMTS-5 protein (catalog #2198-AD, R&D Systems) was assayed with a protein substrate, the aggrecan IGD protein. The aggrecan IGD protein is a polypeptide connecting human aggrecan globular domains 1 and 2 (T331-G458) expressed in E. Coli with a C-terminal His-tag (catalog #30411000, BIOTEZ). The enzymatic product ARGSVIL-peptide was detected using an ELISA kit from BioTEZ (catalog #30510111).
An assay buffer containing 50 mM HEPES pH 7.5, 100 mM NaCl, 5 mM CaCl2), 0.1% CHAPS and 5% Glycerol was prepared. Recombinant ADAMTS-5 protein was diluted to 0.3 nM in the assay buffer. Ten μl of […] and 10 μl of compound solution was transferred to each well of a 96-well plate and incubated at room temperature for 15 minutes. Substrate aggrecan-IGD was diluted to 100 nM with the assay buffer and 20 μl was added to each well. The plate was incubated at 37° C. for 45 minutes. After incubation, the newly generated epitope ARGSVIL-peptides were measured using the Aggrecanase Activity ELISA Assay Kit following the manufacturer's instructions. Then, 100 μl of stop solution was added and the absorbance of each well was read at 450 nm, using […] as reference on a TECAN plate reader.
A standard curve of the ELISA assay was generated in GraphPad Prism using Sigmoidal 4PL function and the corresponding peptide concentrations were calculated based on the standard curve. The IC50 values were calculated using function “log (inhibitor) vs. response—Variable slope (four parameters)”. (See Table 2).

[3] = biological target: ADAMTS-4 recombinant protein (Homo sapiens (Human), UniProt O75173); assay: In vitro fluorescence (FRET-peptide) enzymatic assay of ADAMTS-4 activity; conditions: FRET peptide substrate 15 μM, 10 nM enzyme, 37° C. 3 hours
Description: as §1, §2, §3

ADAMTS-4 recombinant protein, sequence (O75173 213-685): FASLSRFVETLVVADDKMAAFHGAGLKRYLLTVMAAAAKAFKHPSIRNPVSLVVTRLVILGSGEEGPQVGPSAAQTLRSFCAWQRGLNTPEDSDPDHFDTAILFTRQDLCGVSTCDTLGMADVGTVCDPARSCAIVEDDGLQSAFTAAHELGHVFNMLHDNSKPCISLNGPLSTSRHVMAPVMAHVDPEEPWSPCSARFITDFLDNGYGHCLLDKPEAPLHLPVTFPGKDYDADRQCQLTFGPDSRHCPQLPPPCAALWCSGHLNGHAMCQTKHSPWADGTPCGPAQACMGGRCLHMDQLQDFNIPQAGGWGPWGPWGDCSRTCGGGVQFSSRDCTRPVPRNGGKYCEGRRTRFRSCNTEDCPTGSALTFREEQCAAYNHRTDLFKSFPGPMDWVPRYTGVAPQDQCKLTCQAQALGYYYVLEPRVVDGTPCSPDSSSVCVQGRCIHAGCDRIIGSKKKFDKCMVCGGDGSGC
T1 sequence (Q9UNA0 262-622): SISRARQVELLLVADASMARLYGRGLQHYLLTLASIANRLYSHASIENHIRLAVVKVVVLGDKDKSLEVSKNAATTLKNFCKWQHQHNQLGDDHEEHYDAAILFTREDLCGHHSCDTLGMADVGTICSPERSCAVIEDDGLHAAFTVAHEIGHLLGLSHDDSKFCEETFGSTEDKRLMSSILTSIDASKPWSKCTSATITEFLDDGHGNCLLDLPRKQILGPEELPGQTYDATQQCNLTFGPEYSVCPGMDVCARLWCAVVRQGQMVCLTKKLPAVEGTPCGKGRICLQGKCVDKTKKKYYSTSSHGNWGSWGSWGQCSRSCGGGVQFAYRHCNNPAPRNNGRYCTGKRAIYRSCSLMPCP

Structure (SMILES)	IC50 [1]	IC50 [2]	IC50 [3]
CC1CN(C(=O)CC[C@@]2(C3CC3)NC(=O)NC2=O)CCc2ccc(F)cc21 (stereo partly drawn) [Example 22, (5S)-5-cyclopropyl-5-(3-(8-fluoro-1-methyl-1,2,4,5-tetrahydro-3H-benzo[d]azepin-3-y1)-3-oxopropyl)imidazolidine-2,4-dione]	61 nM	140 nM	51 nM
COc1ccc2c(c1)CN(C(=O)CC[C@@]1(C3CC3)NC(=O)NC1=O)C2 [Example 24, (S)-5-cyclopropyl-5-(3-(5-methoxyisoindolin-2-yl)-3-oxopropyl)imidazolidine-2,4-dione]	360 nM	840 nM	120 nM
CC(C[C@@]1(C2CC2)NC(=O)NC1=O)C(=O)N1Cc2ccc(C(F)(F)F)cc2C1 (stereo partly drawn) [Example 29, (5S)-5-cyclopropyl-5-(2-methyl-3-oxo-3-(5-(trifluoromethyl)isoindolin-2-yl)propyl)imidazolidine-2,4-dione]	22 nM	56 nM	14 nM
COc1cc2c(cc1Cl)CN(C(=O)CC[C@@]1(C3CC3)NC(=O)NC1=O)C2 [Example 35, (S)-5-(3-(5-chloro-6-methoxyisoindolin-2-yl)-3-oxopropyl)-5-cyclopropylimidazolidine-2,4-dione]	110 nM	170 nM	230 nM
COc1cc2c(cc1Cl)CN(C(=O)C(C)C[C@@]1(C3CC3)NC(=O)NC1=O)C2 (stereo partly drawn) [Example 36-1, (5S)-5-(3-(5-chloro-6-methoxyisoindolin-2-yl)-2-methyl-3-oxopropyl)-5-cyclopropylimidazolidine-2,4-dione]	15 nM	36 nM	21 nM
CC1CN(C(=O)CC[C@@]2(C3CC3)NC(=O)NC2=O)CCc2cc(Cl)c(Cl)cc21 (stereo partly drawn) [Example 37, (S)-5-cyclopropyl-5-(3-(7,8-dichloro-1-methyl-1,2,4,5-tetrahydro-3H-benzo [d]azepin-3-yl)-3-oxopropyl)imidazolidine-2,4-dione]	13 nM	16 nM	5 nM
CC1CN(C(=O)CC[C@@]2(C3CC3)NC(=O)NC2=O)CCc2ccc(Cl)c(Cl)c21 (stereo partly drawn) [Example 38, (S)-5-cyclopropyl-5-(3-(8,9-dichloro-1-methyl-1,2,4,5-tetrahydro-3H-benzo [d]azepin-3-yl)-3-oxopropyl)imidazolidine-2,4-dione]	31 nM	29 nM	62 nM
O=C1NC(=O)[C@](CCC(=O)N2Cc3cc(F)c(C(F)(F)F)cc3C2)(C2CC2)N1 [Example 39, (S)-5-cyclopropyl-5-(3-(5-fluoro-6-(trifluoromethyl)isoindolin-2-yl)-3-oxopropyl)imidazolidine-2,4-dione]	62 nM	65 nM	110 nM
CC1c2cc(C(F)(F)F)c(Cl)cc2CN1C(=O)CC[C@@]1(C2CC2)NC(=O)NC1=O (stereo partly drawn) [Example 41, (5S)-5-(3-(5-chloro-1-methyl-6-(trifluoromethyl)isoindolin-2-yl)-3-oxopropyl)-5-cyclopropylimidazolidine-2,4-dione]	21 nM	18 nM	36 nM
CC(C)C(C[C@@]1(C2CC2)NC(=O)NC1=O)C(=O)N1Cc2ccc(C(F)(F)F)cc2C1 (stereo partly drawn) [Example 49-2, (5S)-5-cyclopropyl-5-(3-methyl-2-(5-(trifluoromethyl)isoindoline-2-carbonyl)butyl)imidazolidine-2,4-dione]	20 nM	55 nM	15 nM
Nc1cc2c(cc1Cl)CN(C(=O)CC[C@@]1(C3CC3)NC(=O)NC1=O)C2 [Example 54, (S)-5-(3-(5-amino-6-chloroisoindolin-2-yl)-3-oxopropyl)-5-cyclopropylimidazolidine-2,4-dione]	110 nM	200 nM	11 nM
Cc1cc2c(cc1Cl)CN(C(=O)CC[C@@]1(C3CC3)NC(=O)NC1=O)C2 [Example 57, (S)-5-(3-(5-chloro-6-methylisoindolin-2-yl)-3-oxopropyl)-5-cyclopropylimidazolidine-2,4-dione]	130 nM	190 nM	43 nM
O=C1NC(=O)C(CCC(=O)N2Cc3cc(Cl)c(Cl)cc3C2)(c2ccccn2)N1 (stereo not drawn) [Example 61, 5-(3-(5,6-dichloroisoindolin-2-yl)-3-oxopropyl)-5-(pyridin-2-yl)imidazolidine-2,4-dione]	42 nM	72 nM	40 nM
Cn1ccnc1C1(CCC(=O)N2Cc3ccc(C(F)(F)F)cc3C2)NC(=O)NC1=O (stereo not drawn) [Example 62, 5-(1-methyl-1H-imidazol-2-yl)-5-(3-oxo-3-(5-(trifluoromethyl)isoindolin-2-yl)propyl)imidazolidine-2,4-dione]	89 nM	290 nM	100 nM
O=C1NC(=O)C(CC(COCc2ccccc2)C(=O)N2Cc3ccc(C(F)(F)F)cc3C2)(C2CC2)N1 (stereo not drawn) [Example 65, 5-(2-((benzyloxy)methyl)-3-oxo-3-(5-(trifluoromethyl)isoindolin-2-yl)propyl)-5-cyclopropylimidazolidine-2,4-dione]	21 nM	31 nM	16 nM
CC1c2cc(Cl)c(Cl)cc2CN1C(=O)CC[C@@]1(C2CC2)NC(=O)NC1=O (stereo partly drawn) [Example 66, (5S)-5-cyclopropyl-5-(3-(5,6-dichloro-1-methylisoindolin-2-yl)-3-oxopropyl)imidazolidine-2,4-dione]	52 nM	83 nM	43 nM
[2H]C1([2H])c2cc(Cl)c(Cl)cc2C(C)N1C(=O)CC[C@@]1(C2CC2)NC(=O)NC1=O (stereo partly drawn) [Example 69, (5S)-5-cyclopropyl-5-(3-(5,6-dichloro-1-methylisoindolin-2-yl-3,3-d2)-3-oxopropyl)imidazolidine-2,4-dione]	40 nM	47 nM	68 nM
[2H]C1([2H])c2cc(Cl)c(C(F)(F)F)cc2C(C)N1C(=O)CC[C@@]1(C2CC2)NC(=O)NC1=O (stereo partly drawn) [Example 71, (5S)-5-(3-(5-chloro-1-methyl-6-(trifluoromethyl)isoindolin-2-yl-3,3-d2)-3-oxopropyl)-5-cyclopropylimidazolidine-2,4-dione]	26 nM	29 nM	54 nM
Cn1ccnc1C1(CCC(=O)N2Cc3cc(Cl)c(C(F)(F)F)cc3C2)NC(=O)NC1=O (stereo not drawn) [Example 73, 5-(3-(5-chloro-6-(trifluoromethyl)isoindolin-2-yl)-3-oxopropyl)-5-(1-methyl-1H-imidazol-2-yl)imidazolidine-2,4-dione]	27 nM	47 nM	61 nM
Cc1cc(C2(CCC(=O)N3Cc4cc(Cl)c(C(F)(F)F)cc4C3)NC(=O)NC2=O)no1 (stereo not drawn) [Example 75, 5-(3-(5-chloro-6-(trifluoromethyl)isoindolin-2-yl)-3-oxopropyl)-5-(5-methylisoxazol-3-yl)imidazolidine-2,4-dione]	75 nM	110 nM	120 nM
Cc1cc(C2(CCC(=O)N3Cc4cc(Cl)c(C(F)(F)F)cc4C3)NC(=O)NC2=O)n[nH]1 (stereo not drawn) [Example 78, 5-(3-(5-chloro-6-(trifluoromethyl)isoindolin-2-yl)-3-oxopropyl)-5-(5-methyl-1H-pyrazol-3-yl)imidazolidine-2,4-dione]	57 nM	76 nM	160 nM
O=C1NC(=O)C(CCC(=O)N2Cc3cc(Cl)c(C(F)(F)F)cc3C2)(c2ncccn2)N1 (stereo not drawn) [Example 79, 5-(3-(5-chloro-6-(trifluoromethyl)isoindolin-2-yl)-3-oxopropyl)-5-(pyrimidin-2-yl)imidazolidine-2,4-dione]	110 nM	210 nM	250 nM
